Data from patent US20260294874A1, “COMPOSITIONS COMPRISING MODULATORS OF RIBONUCLEOPROTEIN GRANULE FORMATION AND DISSOLUTION AND METHODS OF USE THEREOF” (University of Virginia Patent Foundation, priority 2023, published 2026).
Where “and” joins values, the source holds several entries; their conditions need not be identical. Identical values can stand only once. Entries after “also recorded” stand apart in the source; their conditions may differ. Like-named read-outs stand apart in the source and are kept apart here.

Target: T1, recombinant EDC3 (Homo sapiens, UniProt Q96F86)
T1 construct: FLAG; expressed in transfected cells; host or cells: HEK293T
T1 sequence (Q96F86 1-508): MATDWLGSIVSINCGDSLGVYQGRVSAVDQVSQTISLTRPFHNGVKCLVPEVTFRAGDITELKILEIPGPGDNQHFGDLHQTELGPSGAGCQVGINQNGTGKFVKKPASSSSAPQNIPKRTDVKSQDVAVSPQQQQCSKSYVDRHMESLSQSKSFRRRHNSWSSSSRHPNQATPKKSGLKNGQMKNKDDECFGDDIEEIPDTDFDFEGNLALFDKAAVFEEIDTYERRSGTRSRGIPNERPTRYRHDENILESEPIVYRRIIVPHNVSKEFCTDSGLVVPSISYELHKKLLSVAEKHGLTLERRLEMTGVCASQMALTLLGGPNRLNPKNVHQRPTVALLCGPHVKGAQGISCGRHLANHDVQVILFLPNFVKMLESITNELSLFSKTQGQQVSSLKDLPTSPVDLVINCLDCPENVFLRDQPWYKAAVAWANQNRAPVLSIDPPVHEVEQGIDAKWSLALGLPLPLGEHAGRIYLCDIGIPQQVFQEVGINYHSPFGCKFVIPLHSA
Experiment: Competitive gel-based ABPP, HHS-465 probe labeling of recombinant EDC3 in HEK293T cells
Format: cell-based
Conditions: for inhibition of HHS-465 probe labeling of recombinant EDC3 (in words): 25 μM, 2 h (FIG. 4F), 0.1-100 μM for concentration dependence (FIG. 4D)
Source text: FIGS. 4A-4F. Discovery of a SuTEx ligand for the hyper-reactive EDC3 Y475 site. (FIG. 4A) Overlap of liganded sites from SuTEx PB modulators with reported RNA granule induction-sensitive lysine and tyrosine sites (RISKYs; Ciancone et al., 2022). The five overlapping sites were further compared to previously reported hyper-RISKY sites (Ciancone et al., 2022) resulting in the identification of the tyrosine-475 (Y475) site on EDC3. (FIG. 4B) Representative immunofluorescence images depicting decreased PBs and increased SGs in AHL-030-treated cells under stress conditions. EKT235 is shown as a negative control. See FIGS. 8 and 9 for additional details. (FIG. 4C) Representative MS1 extracted ion chromatograms (EICs) showing EDC3 Y475 (i.e., amino acid 2 of the peptide sequence […]; SEQ ID NO: 1, which corresponds to amino acids 474-500 of the human enhancer of mRNA-decapping protein 3 isoform 1 polypeptide of GENBANK® Accession No. NP_001135915.1) is liganded by AHL-030 but not EKT235 [SILAC ratio or SR>2 for DMSO vehicle (light, red)/SuTEx fragment ligand (heavy, blue) treatment conditions]. Enrichment (HHS-465/DMSO) and 1:1 (HHS-465/HHS-465) controls are shown. SRs are calculated as the integrated area under the curve ratio of light-to-heavy peptide. Data are representative of n=2-3 biologically independent replicates. […] EDC3-expressing HEK293T cells were pretreated with varying concentrations of AHL-030 (0.1-100 μM, 2 hours) followed by lysis and probe labeling of soluble proteomes with HHS-465 (100 μM, 1 h, RT). The in situ IC50 for EDC3 probe labeling inhibition by AHL-030 was estimated to be ~6 μM. […] Data shown are mean±SEM and representative of n=3 biologically independent replicates. […] Western blots comparing recombinant expression of EDC3 (α-FLAG) and loading controls (α-GAPDH) are shown. Data are representative of n=2 biologically independent replicates.
Among the candidate PB-modulating SuTEx compounds, we focused on AHL-030 because of its PB-inhibitory, SG-enhancing activity in stressed cells and ability to ligand the EDC3 Y475 site (SR >2; FIGS. 4B and 4C). Importantly, we identified a restricted number of reproducibly liganded sites (7 in total) in addition to EDC3 Y475 in chemoproteomic profiling studies of AHL-030 (FIG. 12). We further confirmed AHL-030 as an EDC3 ligand using competitive activity-based protein profiling (ABPP; Grams & Hsu, 2022). Recombinant EDC3-expressing HEK293T cells were treated with a panel of RNP granule modulators including AHL-030 and the negative control compound EKT235 to evaluate structure-activity relationships (SAR, 25 μM compounds, 2 h). Cells were lysed and soluble proteomes labeled with HHS-465 (100 μM, 1 h, RT) followed by CuAAC with rhodamine-azide, SDS-PAGE and in-gel fluorescence scanning. […] Using the in vitro IC50, we calculated the lipophilic efficiency (LipE) of AHL-030 to be ~7, which falls in the range of acceptable lipophilicity in relation to potency (Leeson & Springthorpe, 2007).

CC(C)c1cc(C(C)C)c(S(=O)(=O)n2cc(-c3ccc(C(F)(F)F)cc3)nn2)c(C(C)C)c1 [AHL-003]
inhibition of HHS-465 probe labeling of recombinant EDC3 (in words) (HHS-465 100 μM, 1 h, RT): largely inactive

COc1ccc(S(=O)(=O)n2cc(CS(C)(=O)=O)nn2)cc1 [AHL-030, 1-((4-Methoxyphenyl)sulfonyl)-4-((methylsulfonyl)methyl)-1H-1,2,3-triazole]
inhibition of HHS-465 probe labeling of recombinant EDC3 (in words) (HHS-465 100 μM, 1 h, RT): blocked HHS-465 probe labeling of EDC3 in a concentration-dependent manner; also recorded: concentration-dependent binding to recombinant EDC3; also recorded: competition of HHS-465 probe labeling | pIC50/EC50: pIC50 (AHL-030, used for LipE): 5.3 | IC50 (IC50 (AHL-030), EDC3 probe labeling, read-out: IC50/EC50 (M): IC50): 5.6e-06 M | IC50 (in situ, 0.1-100 μM, 2 h, HHS-465 100 μM, 1 h, RT, n=3, read-out: IC50 for EDC3 probe labeling inhibition): 6e-06 M and ~6e-06 M

N#Cc1ccc(S(=O)(=O)n2cc(-c3cccc(Cl)c3)nn2)cc1 [EKT231, 4-((4-(3-Chlorophenyl)-1H-1,2,3-triazol-1-yl)sulfonyl)benzonitrile]
inhibition of HHS-465 probe labeling of recombinant EDC3 (in words) (HHS-465 100 μM, 1 h, RT): largely inactive
